Test results taken from ChEMBL document CHEMBL5291721, “A preclinical secondary pharmacology resource illuminates target-adverse drug reaction associations of marketed drugs” (Nat Commun, 2023).

Columns and labels:
[1] = biological target: T1, Alpha-2A adrenergic receptor (Homo sapiens, UniProt P08913); format: functional, cell-based
T1 sequence (P08913 whole entry): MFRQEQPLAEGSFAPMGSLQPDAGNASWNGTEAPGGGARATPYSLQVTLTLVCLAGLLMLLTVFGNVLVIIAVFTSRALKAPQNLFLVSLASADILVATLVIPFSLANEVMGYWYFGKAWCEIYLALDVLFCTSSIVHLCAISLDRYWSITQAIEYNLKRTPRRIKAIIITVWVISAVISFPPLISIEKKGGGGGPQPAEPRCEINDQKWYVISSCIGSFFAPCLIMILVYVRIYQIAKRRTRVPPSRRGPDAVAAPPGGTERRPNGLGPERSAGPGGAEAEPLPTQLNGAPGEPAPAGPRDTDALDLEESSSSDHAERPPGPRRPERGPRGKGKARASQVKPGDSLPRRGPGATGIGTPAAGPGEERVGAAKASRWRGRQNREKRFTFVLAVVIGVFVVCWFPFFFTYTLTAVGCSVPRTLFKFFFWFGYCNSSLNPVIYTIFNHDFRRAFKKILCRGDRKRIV

[2] = biological target: T1, Alpha-2A adrenergic receptor; format: functional, cell-based; remark: listed apart in the source
[3] = biological target: T2, Type-1 angiotensin II receptor (Homo sapiens, UniProt P30556)
T2 sequence (P30556 whole entry): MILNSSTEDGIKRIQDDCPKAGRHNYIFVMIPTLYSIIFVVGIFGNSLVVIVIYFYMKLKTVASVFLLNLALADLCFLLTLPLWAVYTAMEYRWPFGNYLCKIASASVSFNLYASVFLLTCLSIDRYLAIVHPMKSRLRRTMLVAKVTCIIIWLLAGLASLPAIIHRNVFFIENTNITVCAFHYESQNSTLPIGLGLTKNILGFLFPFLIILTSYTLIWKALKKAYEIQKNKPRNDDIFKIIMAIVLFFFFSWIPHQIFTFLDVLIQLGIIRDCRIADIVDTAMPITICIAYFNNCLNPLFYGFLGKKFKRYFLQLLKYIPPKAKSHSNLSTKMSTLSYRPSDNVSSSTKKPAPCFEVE

[4] = biological target: T3, Muscarinic acetylcholine receptor M2 (Homo sapiens, UniProt P08172); format: functional, cell-based
T3 sequence (P08172 whole entry): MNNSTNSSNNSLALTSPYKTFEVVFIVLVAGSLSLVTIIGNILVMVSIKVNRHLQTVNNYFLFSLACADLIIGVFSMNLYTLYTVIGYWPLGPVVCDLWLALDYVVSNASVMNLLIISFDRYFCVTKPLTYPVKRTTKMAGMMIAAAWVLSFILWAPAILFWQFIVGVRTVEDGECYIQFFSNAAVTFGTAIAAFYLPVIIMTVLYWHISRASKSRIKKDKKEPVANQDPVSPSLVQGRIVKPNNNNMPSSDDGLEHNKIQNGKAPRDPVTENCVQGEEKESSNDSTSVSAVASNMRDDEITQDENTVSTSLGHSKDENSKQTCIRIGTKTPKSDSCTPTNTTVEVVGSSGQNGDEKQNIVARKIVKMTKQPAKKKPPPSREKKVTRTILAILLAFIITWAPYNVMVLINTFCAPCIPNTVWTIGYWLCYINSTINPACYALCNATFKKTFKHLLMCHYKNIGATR

[5] = biological target: Growth hormone secretagogue receptor type 1 (Homo sapiens, UniProt Q92847)
[6] = biological target: T4, 5-hydroxytryptamine receptor 1A (Homo sapiens, UniProt P08908); format: functional, cell-based
T4 sequence (P08908 whole entry): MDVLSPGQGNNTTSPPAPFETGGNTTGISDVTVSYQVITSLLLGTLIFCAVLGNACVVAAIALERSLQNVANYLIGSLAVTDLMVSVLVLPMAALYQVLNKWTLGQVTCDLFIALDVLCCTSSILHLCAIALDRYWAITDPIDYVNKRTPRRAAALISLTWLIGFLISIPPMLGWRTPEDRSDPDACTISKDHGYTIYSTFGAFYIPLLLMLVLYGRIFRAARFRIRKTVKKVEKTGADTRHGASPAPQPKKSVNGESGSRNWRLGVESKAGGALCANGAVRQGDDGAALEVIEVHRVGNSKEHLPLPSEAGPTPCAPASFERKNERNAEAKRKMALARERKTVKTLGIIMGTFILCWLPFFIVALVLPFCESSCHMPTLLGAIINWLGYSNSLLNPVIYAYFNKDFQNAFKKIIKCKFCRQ

Motilin receptor = Motilin receptor (Homo sapiens, UniProt O43193)
[7] = biological target: Delta-type opioid receptor (Homo sapiens, UniProt P41143)
[8] = biological target: 3',5'-cyclic-AMP phosphodiesterase 4D (Homo sapiens, UniProt Q08499); format: functional
[9] = biological target: T5, Amine oxidase [flavin-containing] A (Homo sapiens, UniProt P21397); format: functional
T5 sequence (P21397 whole entry): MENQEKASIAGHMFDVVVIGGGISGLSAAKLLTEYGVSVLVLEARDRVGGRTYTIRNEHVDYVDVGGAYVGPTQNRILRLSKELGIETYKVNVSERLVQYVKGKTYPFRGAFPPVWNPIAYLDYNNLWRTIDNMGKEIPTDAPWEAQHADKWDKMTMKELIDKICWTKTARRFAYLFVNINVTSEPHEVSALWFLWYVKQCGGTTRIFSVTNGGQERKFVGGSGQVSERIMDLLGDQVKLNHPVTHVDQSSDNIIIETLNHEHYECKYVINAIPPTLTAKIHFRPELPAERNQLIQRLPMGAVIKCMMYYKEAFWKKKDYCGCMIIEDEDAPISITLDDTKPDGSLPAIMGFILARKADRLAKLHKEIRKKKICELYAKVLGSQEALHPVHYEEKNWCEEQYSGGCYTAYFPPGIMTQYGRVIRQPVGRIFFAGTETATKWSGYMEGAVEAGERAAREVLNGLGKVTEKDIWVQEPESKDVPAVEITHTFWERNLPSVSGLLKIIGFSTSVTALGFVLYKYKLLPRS

[10] = biological target: cGMP-inhibited 3',5'-cyclic phosphodiesterase 3A (Homo sapiens, UniProt Q14432); format: functional
Also: assay procedure not described here.

Chain of 3',5'-cyclic-AMP phosphodiesterase 4D (Q08499 whole entry): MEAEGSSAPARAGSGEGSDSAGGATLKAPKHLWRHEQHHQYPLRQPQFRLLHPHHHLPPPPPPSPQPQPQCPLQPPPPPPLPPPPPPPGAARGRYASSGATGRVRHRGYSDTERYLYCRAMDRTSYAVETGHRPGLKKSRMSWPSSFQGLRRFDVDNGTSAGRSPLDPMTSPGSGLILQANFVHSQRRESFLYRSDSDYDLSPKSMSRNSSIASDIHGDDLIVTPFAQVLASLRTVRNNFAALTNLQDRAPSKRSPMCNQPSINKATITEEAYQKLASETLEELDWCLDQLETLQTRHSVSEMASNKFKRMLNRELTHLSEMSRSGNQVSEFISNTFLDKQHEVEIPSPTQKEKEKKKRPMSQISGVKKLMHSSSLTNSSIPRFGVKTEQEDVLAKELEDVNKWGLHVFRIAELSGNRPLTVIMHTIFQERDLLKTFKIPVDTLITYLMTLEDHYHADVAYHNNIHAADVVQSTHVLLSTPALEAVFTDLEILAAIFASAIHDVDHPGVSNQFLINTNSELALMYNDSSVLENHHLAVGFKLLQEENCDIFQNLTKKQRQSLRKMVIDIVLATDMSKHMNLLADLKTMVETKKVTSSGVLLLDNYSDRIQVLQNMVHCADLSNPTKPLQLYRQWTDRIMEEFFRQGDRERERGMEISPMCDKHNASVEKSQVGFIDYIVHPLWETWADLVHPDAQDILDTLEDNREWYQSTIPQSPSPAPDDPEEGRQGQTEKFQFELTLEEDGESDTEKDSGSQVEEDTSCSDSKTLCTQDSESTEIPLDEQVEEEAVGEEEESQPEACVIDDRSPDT
Chain of cGMP-inhibited 3',5'-cyclic phosphodiesterase 3A (Q14432 whole entry): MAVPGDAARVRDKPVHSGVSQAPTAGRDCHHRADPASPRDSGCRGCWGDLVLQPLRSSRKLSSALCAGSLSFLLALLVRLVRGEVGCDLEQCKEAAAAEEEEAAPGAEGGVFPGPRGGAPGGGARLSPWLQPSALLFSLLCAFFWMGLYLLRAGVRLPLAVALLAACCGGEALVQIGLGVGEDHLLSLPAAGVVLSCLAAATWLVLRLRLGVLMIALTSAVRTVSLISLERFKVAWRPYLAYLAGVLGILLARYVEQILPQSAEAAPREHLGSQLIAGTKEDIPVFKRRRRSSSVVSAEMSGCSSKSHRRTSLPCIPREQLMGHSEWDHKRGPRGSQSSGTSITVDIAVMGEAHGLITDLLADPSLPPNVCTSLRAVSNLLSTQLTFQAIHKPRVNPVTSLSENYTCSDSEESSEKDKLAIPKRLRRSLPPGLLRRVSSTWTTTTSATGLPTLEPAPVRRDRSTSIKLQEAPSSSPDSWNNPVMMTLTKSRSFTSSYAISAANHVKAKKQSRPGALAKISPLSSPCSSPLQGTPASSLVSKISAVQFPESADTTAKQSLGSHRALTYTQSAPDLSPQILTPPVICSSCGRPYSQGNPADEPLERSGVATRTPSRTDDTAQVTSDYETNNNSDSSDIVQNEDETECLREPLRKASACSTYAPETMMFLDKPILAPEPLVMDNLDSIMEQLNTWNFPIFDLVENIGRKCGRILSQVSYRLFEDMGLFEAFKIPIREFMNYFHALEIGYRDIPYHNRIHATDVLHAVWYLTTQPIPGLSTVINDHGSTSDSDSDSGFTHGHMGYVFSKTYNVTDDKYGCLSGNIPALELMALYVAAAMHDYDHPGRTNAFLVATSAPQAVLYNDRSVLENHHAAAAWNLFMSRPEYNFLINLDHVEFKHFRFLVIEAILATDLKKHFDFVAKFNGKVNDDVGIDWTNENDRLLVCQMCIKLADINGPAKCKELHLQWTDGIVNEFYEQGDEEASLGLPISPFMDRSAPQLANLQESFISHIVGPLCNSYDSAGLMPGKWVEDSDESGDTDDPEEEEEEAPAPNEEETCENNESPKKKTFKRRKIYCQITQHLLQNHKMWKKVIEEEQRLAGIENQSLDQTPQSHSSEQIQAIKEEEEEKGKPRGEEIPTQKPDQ
Chain of Delta-type opioid receptor (P41143 whole entry): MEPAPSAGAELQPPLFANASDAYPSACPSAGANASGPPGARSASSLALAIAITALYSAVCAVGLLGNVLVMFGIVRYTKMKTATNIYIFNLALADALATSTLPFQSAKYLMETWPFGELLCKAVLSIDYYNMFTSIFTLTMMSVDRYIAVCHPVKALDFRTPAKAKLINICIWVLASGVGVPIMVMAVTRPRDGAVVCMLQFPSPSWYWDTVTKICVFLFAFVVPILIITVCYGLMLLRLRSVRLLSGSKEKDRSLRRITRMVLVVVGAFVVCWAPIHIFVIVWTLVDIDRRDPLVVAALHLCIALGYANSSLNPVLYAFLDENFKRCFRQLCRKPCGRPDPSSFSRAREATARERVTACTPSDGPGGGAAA
Chain of Motilin receptor (O43193 whole entry): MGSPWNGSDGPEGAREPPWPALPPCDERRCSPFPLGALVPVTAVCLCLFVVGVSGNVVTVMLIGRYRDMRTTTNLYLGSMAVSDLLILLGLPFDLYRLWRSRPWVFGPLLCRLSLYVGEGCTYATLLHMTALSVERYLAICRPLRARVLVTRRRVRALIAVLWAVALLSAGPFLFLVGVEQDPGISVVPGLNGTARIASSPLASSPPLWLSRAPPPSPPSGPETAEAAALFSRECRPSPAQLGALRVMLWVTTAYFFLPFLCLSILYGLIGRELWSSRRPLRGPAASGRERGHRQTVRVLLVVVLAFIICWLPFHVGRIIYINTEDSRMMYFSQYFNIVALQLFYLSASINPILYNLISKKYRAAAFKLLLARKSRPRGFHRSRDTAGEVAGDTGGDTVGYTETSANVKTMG
Chain of Growth hormone secretagogue receptor type 1 (Q92847 whole entry): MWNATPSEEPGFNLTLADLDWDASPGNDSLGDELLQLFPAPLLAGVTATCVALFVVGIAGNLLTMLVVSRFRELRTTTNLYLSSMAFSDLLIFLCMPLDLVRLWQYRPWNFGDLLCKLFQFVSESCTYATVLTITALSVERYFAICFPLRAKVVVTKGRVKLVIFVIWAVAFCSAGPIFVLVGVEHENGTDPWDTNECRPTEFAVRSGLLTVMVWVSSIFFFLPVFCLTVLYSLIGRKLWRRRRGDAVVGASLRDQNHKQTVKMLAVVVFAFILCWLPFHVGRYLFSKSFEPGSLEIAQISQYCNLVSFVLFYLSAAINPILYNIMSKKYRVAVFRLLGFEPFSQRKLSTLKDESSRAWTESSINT

| SMILES | AC50 [1] [µM] | AC50 [2] [µM] | AC50 [3] [µM] | AC50 [4] [µM] | AC50 [5] [µM] | AC50 [6] [µM] | AC50 (Motilin receptor) [µM] | AC50 [7] [µM] | AC50 [8] [µM] | AC50 [9] [µM] | AC50 [10] [µM] |
| --- | --- | --- | --- | --- | --- | --- | --- | --- | --- | --- | --- |
| Cc1nc([N+](=O)[O-])cn1-c1ccc([N+](=O)[O-])cc1 [NITREFAZOLE] | > 30 | > 30 | > 30 | > 30 | > 30 | > 30 | > 30 | > 30 | > 30 | > 30 | > 30 |
| C1CCC(C(CC2CCCCN2)C2CCCCC2)CC1 (stereo not drawn) [PERHEXILINE] | 11 | – | > 30 | 4.9 | 6.2 | 9.1 | 29 | 23.5 | > 30 | > 30 | > 30 |
| C[N+]1(C)CCC(OC(=O)C(O)(c2ccccc2)C2CCCC2)C1 (stereo not drawn) [GLYCOPYRRONIUM BROMIDE] | – | – | > 30 | – | > 30 | – | > 10 | – | > 30 | – | > 30 |
| Cn1nnc2c(C(N)=O)ncn2c1=O [TEMOZOLOMIDE] | > 30 | > 30 | > 30 | > 30 | > 30 | > 30 | > 30 | > 30 | > 30 | > 30 | > 30 |
| CNC1Cc2ccccc2N(C)c2ccccc21 (stereo not drawn) [METAPRAMINE] | > 30 | 3.2 | > 30 | > 30 | > 30 | > 10 | > 30 | > 30 | > 30 | > 30 | > 30 |
| CN1C(=O)CCS(=O)(=O)C1c1ccc(Cl)cc1 (stereo not drawn) [CHLORMEZANONE] | > 10 | > 10 | > 10 | > 10 | > 10 | > 10 | > 10 | > 30 | > 30 | > 30 | > 30 |
| Cc1c(C(=O)NN2CCCCC2)nn(-c2ccc(Cl)cc2Cl)c1-c1ccc(Cl)cc1 [RIMONABANT] | > 30 | > 30 | 16.9 | – | 25 | > 30 | 21 | > 30 | > 30 | > 30 | 8.4 |
| c1ccc([C@H]2CN3CCSC3=N2)cc1 [LEVAMISOLE] | > 30 | > 30 | > 30 | > 30 | > 30 | > 30 | > 30 | > 30 | > 30 | > 30 | > 30 |
| CN(C)CCC=C1c2ccccc2C(C)(C)c2ccccc21 | > 30 | 6.7 | > 30 | > 10 | 22 | 26 | 14 | > 30 | > 30 | > 30 | > 30 |
| C[C@H]1CNCCc2ccc(Cl)cc21 [LORCASERIN] | > 30 | 7.2 | > 30 | > 30 | > 30 | > 30 | > 30 | > 30 | > 30 | > 30 | > 30 |
| C=CCc1ccccc1OCC(O)CNC(C)C (stereo not drawn) [ALPRENOLOL] | > 30 | > 30 | > 30 | > 30 | > 30 | > 30 | > 30 | > 30 | > 30 | > 30 | > 30 |
| COc1cc(NC(C)CCCN)c2ncccc2c1 (stereo not drawn) [PRIMAQUINE] | – | – | > 30 | – | > 30 | – | > 30 | – | 12 | – | 2.9 |
| CNC(=O)c1ccccc1Sc1ccc2c(/C=C/c3ccccn3)n[nH]c2c1 [AXITINIB] | > 30 | > 30 | > 30 | > 30 | > 30 | > 30 | > 30 | > 30 | > 30 | > 30 | > 30 |
| CC(=O)Nc1ccc(O)cc1 [ACETAMINOPHEN] | – | > 30 | > 30 | > 30 | > 30 | > 30 | > 30 | > 30 | > 30 | > 30 | > 30 |
| CC1=C(C(=O)O)N2C(=O)[C@@H](NC(=O)[C@H](N)c3ccccc3)[C@H]2SC1 [CEPHALEXIN ANHYDROUS] | > 30 | > 30 | > 30 | – | > 30 | > 30 | > 10 | > 30 | > 30 | > 10 | > 30 |
| Clc1ccc2nsnc2c1NC1=NCCN1 [TIZANIDINE] | – | – | > 30 | > 30 | > 30 | > 30 | > 10 | > 30 | > 30 | > 10 | > 30 |
| CCCN1C[C@H](CSC)C[C@@H]2c3cccc4[nH]cc(c34)C[C@H]21 [PERGOLIDE] | – | – | > 30 | > 30 | > 30 | – | > 30 | > 30 | > 30 | > 30 | > 30 |
| CC(C)C[C@H]1C(=O)N2CCC[C@H]2[C@]2(O)O[C@](NC(=O)[C@@H]3C=C4c5cccc6[nH]c(Br)c(c56)C[C@H]4N(C)C3)(C(C)C)C(=O)N12 [BROMOCRIPTINE] | – | – | > 30 | 28 | 25 | 3.1 | > 30 | > 30 | 5.5 | > 30 | > 30 |
| O=C(Cc1ccc(-c2ccccc2)cc1)Nc1ccccn1 [DIFENPIRAMIDE] | > 30 | > 30 | – | > 30 | – | > 30 | – | > 30 | > 30 | > 30 | > 30 |
